US10501413B2, “Inhibitors of the Notch transcriptional activation complex and methods for use of the same” (UNIVERSITY OF MIAMI, priority 2015, dated 2019)

Test system: MAML1 and Notch1 occupancy on HES1 promoter in OE33 and 786-0 cells
Assay: Chromatin immunoprecipitation (ChIP) on the HES1 locus
Format: cell-based, human
Conditions: 24 hours
Description: The effect of inhibitor treatment on the assembly of the NTC in cells was investigated.
Cells (8×10^6 OE33 cells or 10×10^6 786-0 cells) were plated onto a 15 cm tissue culture dish a day prior to treatment. Cells were then treated for 24 hours with (N—[N-(3,5-difluorophenacetyl)-L-alanyl]-S-phenylglycine t-butyl ester (“DAPT”, 5 μM), Inhibitor No. 1-134-83 (25 μM), or DMSO vehicle. Following treatment, cells were cross-linked for 10 minutes with 1% formaldehyde. The reaction was then stopped by adding […] glycine. Cells were collected in SDS lysis buffer (1% SDS, 10 mM EDTA, 50 mM Tris-HCl pH 8.0) and sonicated to yield chromatin fragments of approximately 300 to 800 bp (8 minutes at high level for OE33 cells; 5 minutes at medium level for 786-0 cells in BIORUPTOR UCD-200 sonicator). Lysates were divided into equal parts and immunoprecipitated with either α-Notch1 (A301-894A, Bethyl Laboratories) or α-MAML1 (12166s, Cell Signaling Technology) antibody. Protein:DNA immunoprecipitates were then reverse cross-linked at 65° C. in 200 mM NaCl for 4 hours, followed by incubation with RNase A and proteinase K. DNA was then purified using a PCR purification kit (28104,
Qiagen). Immunoprecipitated DNA was then detected by SYBR green qPCR using HES1 specific oligonucleotide primers (forward: 5′CGTGTCTCCTCCTCCCATT3′; reverse: 5′GGGGGATTCCGCTGTTAT3′).

Structure (SMILES): CCOC(=O)COc1ccc(/C=C2\SC(=S)NC2=O)cc1OC [1-134-83]
- occupancy of MAML1 on the HES1 promoter: decreased the occupancy
- occupancy of NOTCH1 on the HES1 promoter: did not affect
